Experiment: Kinetic gas hydrate inhibition test in stirred steel autoclave
Conditions: 5000 ppm based on the water phase; for Tind (time from attainment of 4° C. until the first gas absorption): distilled water and gas 20:80, 50 bar natural gas; for Tagg (time until the torque rises): distilled water and gas 20:80, 50 bar natural gas, 4° C.
Procedure: To investigate the inhibiting action of the polyesters, a stirred steel autoclave with temperature control, pressure and torque sensor with capacity 450 ml was used. For investigations of kinetic inhibition, the autoclave was filled with distilled water and gas in a volume ratio of 20:80; for investigations of agglomerate inhibition, condensate was additionally added. Finally, 50 bar of natural gas were injected. […] At first, a pressure decrease corresponding to the thermal compression of the gas is observed. When the formation of gas hydrate nuclei occurs during the cooling time, the pressure measured falls, and a rise in the torque measured and a slight increase, in the temperature are observed. Without inhibitors, further growth and increasing agglomeration of the hydrate nuclei lead rapidly to a further rise in the torque. When the mixture is heated, the gas hydrates decompose, so that the starting state of the experimental series is attained. The measure used for the inhibiting action of the polymer is the time from the attainment of the minimum temperature of 4° C. until the first gas absorption (Tind) or the time until the torque rises (Tagg). Long induction times or agglomeration times indicate an effect as a kinetic inhibitor. The torque measured in the autoclave serves, in contrast, as a parameter for the agglomeration of the hydrate crystals. […] Composition of the natural gas used: methane 84.8%, ethane 9.2%, propane 2.6%, butane 0.9%, carbon dioxide 1.6%, nitrogen 0.9%. The comparative substance used was a commercially available gas hydrate inhibitor based on polyvinylpyrrolidone. The dosage in all tests was 5000 ppm based on the water phase.

O=C1CC[C@@H](C(=O)OCCOCCOCCOC(=O)[C@@H]2CCC(=O)N2)N1 [Example 1, triethylene glycol di(pyroglutamate)]
Tind (time from attainment of 4° C. until the first gas absorption): 6.9 h
Tagg (time until the torque rises): 7.2 h

O=C1CC[C@@H](C(=O)OCCOCCOCCOC(=O)[C@@H]2CCC(=O)N2)N1 [Example 2, triethylene glycol di(pyroglutamate)]
Tind (time from attainment of 4° C. until the first gas absorption): 7.3 h
Tagg (time until the torque rises): 7.4 h

From patent US9452981B2, “Pyroglutamic acid esters with improved biodegradability” (Clariant Produkte (Deutschland) GmbH, priority 2005, dated 2016)
